Where two headings read alike, the source gives them in different places.
Tested on: HCT116 cells
Assay: HCT116 cytotoxic activity assay (Alamar Blue, 72 h)
Conditions: Homo sapiens, HCT-116, 72 h
[1] = read-out: IC50 in the HCT116 cytotoxic activity assay

Method: Human tumor cells, e.g., HCT116 cells, are seeded in a 96-well plate at 3.0×10^3 cells/well and grown in 100 μl of RPMI complete media (Invitrogen Corporation, Grand Island, N.Y.) containing 10% fetal bovine serum (Hyclone, Logan, Utah) and 10 mM HEPES and at 37° C. for 16 h in an incubator with 5% CO2. To each well, 50 μl of additional growth media containing 20 μM to 60 nM concentrations of compound with 0.2% DMSO is added. Cells are grown for another 72 h at 37° C. 20 μl of Alamar Blue (Trek Diagnostic Systems, Inc., Cleveland, Ohio) reagent is added to each well and incubated for 4 h at 37° C. Plates are read in a SpectraMax Gemini (Molecular Devices, CA) with 544 nm excitation and 590 nm emission wavelength. IC50 values are determined by linear regression analysis of log drug concentration versus percent inhibition.

With `Nc1nc(Nc2ccc(Oc3ccnc(C(F)(F)F)c3)cc2)cc(-c2ccc3[nH]ccc3c2)n1` [Example 12, 6-(1H-indol-5-yl)-N^4-(4-{[2-(trifluoromethyl)pyridin-4-yl]oxy}phenyl)pyrimidine-2,4-diamine] the IC50 [1] was ≤ 500 nM.

For `Nc1nc(Nc2ccc(Oc3ccnc(C(F)(F)F)c3)cc2)cc(-c2ccc3[nH]cc(CN4CCOCC4)c3c2)n1` [Example 15, 6-[3-(morpholin-4-ylmethyl)-1H-indol-5-yl]-N^4-(4-{[2-(trifluoromethyl)pyridin-4-yl]oxy}phenyl)pyrimidine-2,4-diamine], the IC50 [1] was > 500 nM and the IC50 (read-out: IC50 in the HCT116 cytotoxic activity assay (upper bound of bin)) was ≤ 5000 nM.

Reference: patent publication US20090286785A1, “Pyrimidine Derivatives” (Bayer Pharmaceuticals Corporation, priority 2005, published 2009)
